Several values for one entry are separate records, joined by “and”; a condition that tells them apart may be missing. Identical values can stand only once. Toxic doses and inconclusive results are not listed. Rule as the data show it: active = T/C of 150% or more; inactive = T/C below 125%.
Tested on: L1210 leukemia ip in BDF1 mice, survival T/C
Experiment: NCI In Vivo Anticancer Drug Screen. Data for tumor model L1210 Leukemia (intraperitoneal) in B6D2F1 (BDF1) mice
Details: higher = longer survival
Method in brief: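 Antitumor effect is assessed in tumor-bearing animals. Survival in the compound arm is compared with a vehicle-dosed control arm and expressed as their quotient.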

[1] = endpoint: mean survival time, dose: 100.0 mg/kg/injection, schedule: Q04DX003 (ip), vehicle: saline
[2] = endpoint: mean survival time, dose: 200.0 mg/kg/injection, schedule: Q04DX003 (ip), vehicle: saline
[3] = endpoint: mean survival time, dose: 400.0 mg/kg/injection, schedule: Q04DX003 (ip), vehicle: saline

Measured: T/C

CC1CC(C)(O)CC(C(O)CC2CC(=O)NC(=O)C2)C1=O (configuration not stated)
active: endpoint: mean survival time, dose: 0.08 mg/kg/injection, schedule: Q01DX009 (ip), vehicle: saline 155 % of control | endpoint: mean survival time, dose: 0.15 mg/kg/injection, schedule: Q03HX024 (ip), vehicle: saline 155 % of control | endpoint: mean survival time, dose: 0.3 mg/kg/injection, schedule: Q01DX Z (ip), vehicle: methylcellulose (MC) 155 % of control | endpoint: mean survival time, dose: 0.3 mg/kg/injection, schedule: Q01DX Z (ip), vehicle: other 157 % of control | endpoint: mean survival time, dose: 0.3 mg/kg/injection, schedule: Q03HX016 (ip), vehicle: saline 161 % of control | endpoint: mean survival time, dose: 0.3 mg/kg/injection, schedule: Q03HX024 (ip), vehicle: saline 157 % of control | endpoint: mean survival time, dose: 2.4 mg/kg/injection, schedule: Q04DX003 (ip), vehicle: saline 154 % of control | endpoint: median survival time, dose: 2.0 mg/kg/injection, schedule: Q04DX003 (ip), vehicle: saline 154 % of control
inactive: endpoint: mean survival time, dose: 0.02 mg/kg/injection, schedule: Q03HX024 (ip), vehicle: saline 109 % of control | endpoint: mean survival time, dose: 0.03 mg/kg/injection, schedule: Q01DX Z (ip), vehicle: other 118 % of control | endpoint: mean survival time, dose: 0.04 mg/kg/injection, schedule: Q03HX016 (ip), vehicle: saline 111 % of control | endpoint: mean survival time, dose: 0.04 mg/kg/injection, schedule: Q03HX024 (ip), vehicle: saline 117 % of control | endpoint: mean survival time, dose: 0.08 mg/kg/injection, schedule: Q01DX005 (ip), vehicle: saline 120 % of control | endpoint: mean survival time, dose: 0.08 mg/kg/injection, schedule: Q01DX005 (iv), vehicle: saline 108 % of control | endpoint: mean survival time, dose: 0.08 mg/kg/injection, schedule: Q01DX Z (ip), vehicle: methylcellulose (MC) 123 % of control | endpoint: mean survival time, dose: 0.08 mg/kg/injection, schedule: Q01DX Z (ip), vehicle: other 119 % of control | endpoint: mean survival time, dose: 0.08 mg/kg/injection, schedule: Q03HX016 (ip), vehicle: saline 117 % of control | endpoint: mean survival time, dose: 0.15 mg/kg/injection, schedule: Q01DX005 (iv), vehicle: saline 115 % of control | endpoint: mean survival time, dose: 0.15 mg/kg/injection, schedule: Q01DX009 (ip), vehicle: saline 87 % of control | endpoint: mean survival time, dose: 0.15 mg/kg/injection, schedule: Q01DX009 (oral), vehicle: saline 109 % of control | endpoint: mean survival time, dose: 0.3 mg/kg/injection, schedule: Q01DX001 (iv), vehicle: saline 105 % of control | endpoint: mean survival time, dose: 0.3 mg/kg/injection, schedule: Q01DX009 (oral), vehicle: saline 117 % of control | endpoint: mean survival time, dose: 0.3 mg/kg/injection, schedule: Q11DX001 (ip), vehicle: saline 105 % of control | endpoint: mean survival time, dose: 0.3 mg/kg/injection, schedule: Q14DX008 (ip), vehicle: saline 112 % of control | endpoint: mean survival time, dose: 0.6 mg/kg/injection, schedule: Q01DX001 (iv), vehicle: saline 110 % of control | endpoint: mean survival time, dose: 0.6 mg/kg/injection, schedule: Q01DX005 (iv), vehicle: saline 112 % of control | endpoint: mean survival time, dose: 0.6 mg/kg/injection, schedule: Q01DX009 (oral), vehicle: saline 95 % of control | endpoint: mean survival time, dose: 0.6 mg/kg/injection, schedule: Q01DX Z (ip), vehicle: methylcellulose (MC) 92 % of control | endpoint: mean survival time, dose: 0.6 mg/kg/injection, schedule: Q08DX002 (ip), vehicle: saline 124 % of control | endpoint: mean survival time, dose: 0.6 mg/kg/injection, schedule: Q11DX001 (ip), vehicle: saline 114 % of control | endpoint: mean survival time, dose: 0.6 mg/kg/injection, schedule: Q14DX008 (ip), vehicle: saline 116 % of control | endpoint: mean survival time, dose: 0.9 mg/kg/injection, schedule: Q01DX Z (ip), vehicle: other 95 % of control | endpoint: mean survival time, dose: 1.2 mg/kg/injection, schedule: Q01DX001 (iv), vehicle: saline 121 % of control | endpoint: mean survival time, dose: 1.2 mg/kg/injection, schedule: Q01DX005 (ip), vehicle: saline 88 % of control | endpoint: mean survival time, dose: 1.2 mg/kg/injection, schedule: Q11DX001 (ip), vehicle: saline 113 % of control | endpoint: mean survival time, dose: 1.2 mg/kg/injection, schedule: Q11DX001 (oral), vehicle: saline 109 % of control | endpoint: mean survival time, dose: 1.2 mg/kg/injection, schedule: Q14DX008 (ip), vehicle: saline 113 % of control | endpoint: mean survival time, dose: 1.35 mg/kg/injection, schedule: Q01DX Z (ip), vehicle: other 87 % of control | endpoint: mean survival time, dose: 2.4 mg/kg/injection, schedule: Q01DX001 (iv), vehicle: saline 118 % of control | endpoint: mean survival time, dose: 2.4 mg/kg/injection, schedule: Q11DX001 (ip), vehicle: saline 112 % of control | endpoint: mean survival time, dose: 2.4 mg/kg/injection, schedule: Q11DX001 (oral), vehicle: saline 101 % of control | endpoint: mean survival time, dose: 2.4 mg/kg/injection, schedule: Q14DX008 (ip), vehicle: saline 108 % of control | endpoint: mean survival time, dose: 4.8 mg/kg/injection, schedule: Q11DX001 (ip), vehicle: saline 108 % of control | endpoint: mean survival time, dose: 10.0 micrograms/kg/injection, schedule: Q01DX Z (ip), vehicle: other 100 % of control | endpoint: mean survival time, dose: 20.0 micrograms/kg/injection, schedule: Q01DX Z (ip), vehicle: other 102 % of control | endpoint: mean survival time, dose: 40.0 micrograms/kg/injection, schedule: Q01DX Z (ip), vehicle: other 110 % of control | endpoint: mean survival time, dose: 80.0 micrograms/kg/injection, schedule: Q01DX Z (ip), vehicle: other 115 % of control

N#CC1c2ccccc2CCN1C(=O)c1ccccc1 (configuration not stated)
inactive: endpoint: mean survival time, dose: 100.0 mg/kg/injection, schedule: Q01DX001 (ip), vehicle: carboxymethylcellulose (CMC) 98 % of control | endpoint: mean survival time, dose: 200.0 mg/kg/injection, schedule: Q01DX001 (ip), vehicle: carboxymethylcellulose (CMC) 98 % of control | endpoint: mean survival time, dose: 400.0 mg/kg/injection, schedule: Q01DX001 (ip), vehicle: carboxymethylcellulose (CMC) 93 % of control

Cc1nc(N)[nH]c(=O)c1CCCOc1ccccc1
inactive: endpoint: mean survival time, dose: 50.0 mg/kg/injection, schedule: Q01DX Z (ip), vehicle: carboxymethylcellulose (CMC) 95 % of control | endpoint: mean survival time, dose: 100.0 mg/kg/injection, schedule: Q01DX Z (ip), vehicle: carboxymethylcellulose (CMC) 93 % of control | endpoint: mean survival time, dose: 200.0 mg/kg/injection, schedule: Q01DX Z (ip), vehicle: carboxymethylcellulose (CMC) 93 % of control | endpoint: mean survival time, dose: 400.0 mg/kg/injection, schedule: Q01DX Z (ip), vehicle: carboxymethylcellulose (CMC) 93 % of control

CCCCS(=O)(=O)C1C2CCC(O2)C1S(=O)(=O)CCCC (configuration not stated)
inactive: endpoint: mean survival time, dose: 100.0 mg/kg/injection, schedule: Q04DX002 (ip), vehicle: Klucel (hydroxypropylcellulose) (HPC) 92 % of control | endpoint: mean survival time, dose: 200.0 mg/kg/injection, schedule: Q04DX002 (ip), vehicle: Klucel (hydroxypropylcellulose) (HPC) 105 % of control | endpoint: mean survival time, dose: 400.0 mg/kg/injection, schedule: Q04DX002 (ip), vehicle: Klucel (hydroxypropylcellulose) (HPC) 101 % of control

COc1ccc2c(c1OC)C(=O)OC2c1ccc(O)c(Br)c1 (configuration not stated)
inactive: endpoint: mean survival time, dose: 100.0 mg/kg/injection, schedule: Q01DX009 (ip), vehicle: alcohol 95 % of control | [1] 109 % of control | endpoint: mean survival time, dose: 200.0 mg/kg/injection, schedule: Q01DX009 (ip), vehicle: alcohol 97 % of control | [2] 106 % of control | endpoint: mean survival time, dose: 400.0 mg/kg/injection, schedule: Q01DX009 (ip), vehicle: alcohol 95 % of control | [3] 101 % of control

Cc1c(C)c(Br)c(C)c(-c2c(C)c(C)c(C)c(Br)c2C)c1C
inactive: endpoint: mean survival time, dose: 50.0 mg/kg/injection, schedule: Q01DX009 (ip), vehicle: Klucel (hydroxypropylcellulose) (HPC) 99 % of control | endpoint: mean survival time, dose: 100.0 mg/kg/injection, schedule: Q01DX009 (ip), vehicle: Klucel (hydroxypropylcellulose) (HPC) 97 % of control | endpoint: mean survival time, dose: 200.0 mg/kg/injection, schedule: Q01DX009 (ip), vehicle: Klucel (hydroxypropylcellulose) (HPC) 94 % of control | endpoint: mean survival time, dose: 400.0 mg/kg/injection, schedule: Q01DX009 (ip), vehicle: Klucel (hydroxypropylcellulose) (HPC) 90 % of control

Nc1ncnc(N)c1NC(=O)Cc1ccccc1
inactive: endpoint: mean survival time, dose: 100.0 mg/kg/injection, schedule: Q01DX001 (ip), vehicle: saline with Tween-80 98 % of control | endpoint: mean survival time, dose: 200.0 mg/kg/injection, schedule: Q01DX001 (ip), vehicle: saline with Tween-80 97 % of control | endpoint: mean survival time, dose: 400.0 mg/kg/injection, schedule: Q01DX001 (ip), vehicle: saline with Tween-80 98 % of control

CC1(C)CC(=O)c2ccccc21
inactive: endpoint: mean survival time, dose: 25.0 mg/kg/injection, schedule: Q01DX009 (ip), vehicle: saline 101 % of control | endpoint: mean survival time, dose: 50.0 mg/kg/injection, schedule: Q01DX009 (ip), vehicle: saline 94 % of control and 109 % of control | endpoint: mean survival time, dose: 100.0 mg/kg/injection, schedule: Q01DX009 (ip), vehicle: saline 101 % of control and 102 % of control | [1] 100 % of control | endpoint: mean survival time, dose: 200.0 mg/kg/injection, schedule: Q01DX009 (ip), vehicle: saline 104 % of control | [2] 96 % of control | [3] 102 % of control

Reference: PubChem BioAssay AID248 (DTP/NCI, 2004)
